The text below walks through data of article PMC9414910, “Optimized ^68Ga-Labeled Urea-Based PSMA-Targeted PET Tracers for Prostate Cancer” (Pharmaceuticals, 2022).

Series [1] addresses T1, Recombinant human PSMA (rhPSMA) (Homo sapiens, UniProt Q04609).
T1 construct: purchased R&D systems, Wiesbaden, Germany
The experiment in a line: NAALADase assay (enzyme-based assay on rhPSMA). It counts as biochemical. Particulars: NAAG substrate, unlabeled ligands, read-out: Ki (PSMA inhibition constant). Here is the method:
The partition coefficient of each novel radiotracer was determined using an octanol–water system (v/v = 1:1). The in vitro stability was determined using two systems (PBS and 5% BSA). The Ki value was measured by the NAALADase assay. The 22Rv1 and PC-3 cell lines were used for the cell-binding study and establishment of the tumor-bearing model (detailed information is shown in the Supplementary Materials).
The PSMA-inhibitory activity of novel PSMA ligands was analyzed by performing an enzyme-based assay on rhPSMA [11].
PBS) and reported as log p ± SD.
The in vitro stability of radiotracers was determined by measuring radiochemical purity (RCP) in […] and 5% bovine serum albumin (BSA) at 37 °C at different time intervals (30 min, 60 min, 120 min) using radio-HPLC.
Recombinant human PSMA (rhPSMA, R&D systems, Wiesbaden, Germany) was diluted in assay buffer (50 mM HEPES, 0.1 M NaCl, pH 7.5) to 0.4 μg/mL. […]
250 μL of ortho-phthaldialdehyde solution (OPA, 15 mM, Sigma, Taufkirchen, Germany) was added to each vial and incubated for 3 min at room temperature. 200 μL aliquot of each vial was added into a 96 black well plate and read at excitation and emission wavelengths of 350 and 450 nm using a microplate reader. […] The data were analyzed by the one-site total binding regression algorithm of GraphPad

The nature of series [2]: Radiotoxicity study in male ICR mice. The series is classed as in vivo.
Procedure: Healthy male ICR mice were injected with either a novel radiotracer (37 MBq in 150 μL) or saline (150 μL) for the radiotoxicity evaluation.
Series [3] can be described thus: Blood pharmacokinetics in male ICR mice. It counts as in vivo. To be noted: 7.4 MBq i.v., two-compartment model.
The test system of another series is 22Rv1 cells (mild PSMA+). The experiment in a line: Cell uptake / binding in 22Rv1 cells. To be noted: 60 min incubation, 37 °C. It counts as cell-based, human.
Series [4] in a line: Partition coefficient, octanol–water system. The series is classed as physicochemical. To be noted: octanol–water (v/v = 1:1), n = 3. In short, it runs like this:
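Radiotracer lipophilicity determined by partitioning between octanol and aqueous phase (1:1 v/v); reported as log p ± SD.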

Another series relates to 22Rv1 tumors. In words: Micro-PET imaging in 22Rv1 tumor-bearing mice. The series is classed as in vivo. Particulars: 60 min p.i.
A further series concerns 22Rv1 tumor-bearing mice. In words: Biodistribution in 22Rv1 tumor-bearing mice. Particulars: for Uptake Blood, Mean / Uptake Bone, Mean / Uptake Heart, Mean / Uptake Kidney, Mean / Uptake Liver, Mean / Uptake Lung, Mean / Uptake Muscle, Mean / Uptake Spleen, Mean / Uptake Tumor (22Rv1), Mean: 0.74 MBq, n = 3.
Setting [5] is: 60 min p.i., listed as [68Ga]Ga-PSMA-Q.
[6] abbreviates: biodistribution, 22Rv1 tumor-bearing mice, 60 min p.i.

T1 sequence (Q04609 whole entry): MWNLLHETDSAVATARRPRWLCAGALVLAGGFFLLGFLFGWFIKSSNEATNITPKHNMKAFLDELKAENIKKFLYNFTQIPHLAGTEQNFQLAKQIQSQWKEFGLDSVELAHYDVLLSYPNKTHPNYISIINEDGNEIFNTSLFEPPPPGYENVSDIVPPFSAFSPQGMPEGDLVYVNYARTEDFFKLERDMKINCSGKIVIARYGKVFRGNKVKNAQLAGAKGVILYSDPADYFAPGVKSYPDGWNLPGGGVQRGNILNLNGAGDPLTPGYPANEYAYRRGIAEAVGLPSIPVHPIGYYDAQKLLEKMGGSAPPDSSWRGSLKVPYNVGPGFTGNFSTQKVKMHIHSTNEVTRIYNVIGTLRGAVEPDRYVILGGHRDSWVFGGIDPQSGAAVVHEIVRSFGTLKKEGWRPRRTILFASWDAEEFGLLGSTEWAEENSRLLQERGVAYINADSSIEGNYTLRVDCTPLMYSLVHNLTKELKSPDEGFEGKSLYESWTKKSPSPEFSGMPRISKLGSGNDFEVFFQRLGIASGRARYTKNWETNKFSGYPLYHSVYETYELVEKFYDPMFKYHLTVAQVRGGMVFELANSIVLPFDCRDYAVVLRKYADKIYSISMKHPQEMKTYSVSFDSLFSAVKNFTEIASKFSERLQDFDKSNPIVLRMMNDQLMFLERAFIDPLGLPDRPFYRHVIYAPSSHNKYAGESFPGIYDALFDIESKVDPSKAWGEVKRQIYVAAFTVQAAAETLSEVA

With `O=C(O)CC[C@H](NC(=O)N[C@@H](CCCCNC(=O)[C@H](Cc1ccc2ccccc2c1)NC(=O)[C@H]1CC[C@H](CNC(=O)CN2CCN(CC(=O)O)CCN(CC(=O)O)CCN(CC(=O)O)CC2)CC1)C(=O)O)C(=O)O` [PSMA-617, reference compound], the Ki in series [1] came to 2.89 ± 1.07 nM.
In the case of `O=C(O)CCC(NC(=O)NC(CCCCNC(=O)C(Cc1cc2ccc3cccc4ccc(c1)c2c34)NC(=O)C1CCC(CNC(=O)CN2CCN(CC(=O)O)CCN(CC(=O)O)CCN(CC(=O)O)CC2)CC1)C(=O)O)C(=O)O` (centres unmarked) [PSMA-P], in series [1], the Ki came to 42.4 ± 2.11 nM.
For `O=C([O-])CN1CCN(CC(=O)[O-])CCN(CC(=O)NCC2CCC(C(=O)NC(Cc3cnc4ccccc4c3)C(=O)NCCCCC(NC(=O)NC(CCC(=O)O)C(=O)O)C(=O)O)CC2)CCN(CC(=O)O)CC1.[68Ga+3]` (centres unmarked) [[^68Ga]Ga-PSMA-Q], the Survival result in series [2] (37 MBq in 150 μL, 14 days) is “did not die within 14 days”. The “Routine blood tests and H&E staining of the main organs vs control” value in series [2] (37 MBq in 150 μL, vs saline) is recorded as “no significant differences”. In addition, the “Acute radiotoxicity-related adverse events” value in series [2] (toxicity experiments in mice) is “no acute radiotoxicity-related adverse events were observed”. This compound also showed an Elimination half-life in series [3] of 17.86 ± 1.23 min. Further, the “Uptake in 22Rv1 cells” value in the series on 22Rv1 cells (mild PSMA+) amounted to 3.75 ± 0.35 IA%/10^6. Moreover, in series [4], the “Log p pH = 7.4” value is reported as −3.24 ± 0.21. This compound yielded an SUVmax of tumor in the series with 22Rv1 tumors (22Rv1 tumor, 7.4 MBq) of 0.97 ± 0.24. In addition, the “Tumor-to-muscle ratio (micro-PET)” value in the series with 22Rv1 tumors (22Rv1 tumor-bearing mice) came out at 59.33 ± 5.72. Moreover, in the series on 22Rv1 tumor-bearing mice (10 min p.i.), the “Uptake Blood, Mean” value is on record as 2.62 ID%/g; the “Uptake Bone, Mean” value worked out at 0.72 ID%/g; the “Uptake Heart, Mean” value turned out to be 2.07 ID%/g; the “Uptake Kidney, Mean” value was 8.79 ID%/g. In addition, in the series on 22Rv1 tumor-bearing mice (10 min p.i.), the “Uptake Liver, Mean” value is recorded as 2.13 ID%/g; the “Uptake Lung, Mean” value was 1.10 ID%/g; the “Uptake Muscle, Mean” value was found to be 0.70 ID%/g; the “Uptake Spleen, Mean” value is 2.16 ID%/g. Moreover, the “Uptake Tumor (22Rv1), Mean” value in the series on 22Rv1 tumor-bearing mice (10 min p.i.) came out at 1.86 ID%/g. In addition, in the series with 22Rv1 tumor-bearing mice (30 min p.i.), the “Uptake Blood, Mean” value came to 1.04 ID%/g; the “Uptake Bone, Mean” value is given as 0.22 ID%/g; the “Uptake Heart, Mean” value came to 0.98 ID%/g; the “Uptake Kidney, Mean” value was 5.91 ID%/g. For the same compound, in the series with 22Rv1 tumor-bearing mice (30 min p.i.), the “Uptake Liver, Mean” value is 1.14 ID%/g; the “Uptake Lung, Mean” value is recorded as 0.76 ID%/g; the “Uptake Muscle, Mean” value worked out at 0.21 ID%/g; the “Uptake Spleen, Mean” value amounted to 1.73 ID%/g. The “Uptake Tumor (22Rv1), Mean” value in the series with 22Rv1 tumor-bearing mice (30 min p.i.) came to 2.98 ID%/g. For the same compound, in the series with 22Rv1 tumor-bearing mice (60 min p.i.), the “Uptake Blood, Mean” value worked out at 0.31 ID%/g; the “Uptake Bone, Mean” value worked out at 0.21 ID%/g; the “Uptake Heart, Mean” value was 0.08 ID%/g; the “Uptake Liver, Mean” value is given as 0.70 ID%/g. Further, in the series on 22Rv1 tumor-bearing mice (60 min p.i.), the “Uptake Lung, Mean” value stood at 0.33 ID%/g; the “Uptake Muscle, Mean” value is listed as 0.13 ID%/g; the “Uptake Spleen, Mean” value is listed as 0.35 ID%/g; the “Uptake Tumor (22Rv1), Mean” value is given as 4.06 ± 0.36 ID%/g. Besides, in the series on 22Rv1 tumor-bearing mice (setting [5]), the “Uptake Kidney, Mean” value was 2.46 ID%/g and the “Uptake Tumor (22Rv1), Mean” value is recorded as 4.06 ID%/g. Besides, in the series with 22Rv1 tumor-bearing mice (setting [6]), the “Tumor-to-kidney (T/K) ratio” value stood at 1.60 ± 0.08 and the “Tumor-to-muscle (T/M) ratio” value was determined as 31.44 ± 2.09. For the same compound, in the series on 22Rv1 tumor-bearing mice (within 60 min p.i.), the “Clearance profile in the kidneys” value is “washed out rapidly from the kidneys”.
